{"source": "patent US9790188B2", "about": "“Benzimidazole derivatives and uses thereof” (Whitehead Institute for Biomedical Research, priority 2013, dated 2017)", "key": {"Rsp5p": {"target": "Rsp5p (Saccharomyces cerevisiae, UniProt P39940)", "sequence (P39940 whole entry)": "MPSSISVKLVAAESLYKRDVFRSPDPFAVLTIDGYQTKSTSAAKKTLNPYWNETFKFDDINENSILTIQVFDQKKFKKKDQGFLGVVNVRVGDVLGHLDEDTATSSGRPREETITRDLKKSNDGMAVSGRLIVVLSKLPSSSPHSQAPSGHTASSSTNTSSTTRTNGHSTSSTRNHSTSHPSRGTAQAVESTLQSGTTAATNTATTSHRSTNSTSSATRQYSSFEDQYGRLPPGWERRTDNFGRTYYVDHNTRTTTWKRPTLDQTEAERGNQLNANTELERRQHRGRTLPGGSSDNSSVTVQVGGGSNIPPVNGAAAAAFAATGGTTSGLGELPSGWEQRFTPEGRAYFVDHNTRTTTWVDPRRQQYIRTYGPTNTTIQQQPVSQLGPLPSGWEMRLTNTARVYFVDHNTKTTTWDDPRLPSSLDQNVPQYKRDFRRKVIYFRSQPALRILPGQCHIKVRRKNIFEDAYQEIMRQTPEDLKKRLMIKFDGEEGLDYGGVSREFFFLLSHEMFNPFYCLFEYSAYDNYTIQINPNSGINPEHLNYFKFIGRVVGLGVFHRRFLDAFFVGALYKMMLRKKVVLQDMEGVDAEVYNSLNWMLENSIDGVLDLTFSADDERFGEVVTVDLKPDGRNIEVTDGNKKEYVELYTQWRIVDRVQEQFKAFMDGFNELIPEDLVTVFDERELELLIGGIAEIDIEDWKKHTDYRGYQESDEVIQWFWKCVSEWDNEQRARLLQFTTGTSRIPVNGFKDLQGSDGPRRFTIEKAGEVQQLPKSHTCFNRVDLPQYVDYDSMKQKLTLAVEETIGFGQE", "conditions": "pers. comm.; cited from earlier work"}, "aSyn^A53T iPS neurons [1]": {"system": "aSyn^A53T iPS neurons", "experiment": "Nitrosative stress (NO sensor FL2) in patient iPS neurons", "conditions": "human cortical neurons from iPSCs of a patient carrying α-syn mutations", "text": "Nitrosative stress was monitored by protein nitration levels using the 3-NT antibody. […] All data represented as mean±SEM (*: p<0.05; **: p<0.01, two tail t-test compared to control condition)."}, "α-syn [2]": {"system": "α-syn", "experiment": "Yeast growth rescue from α-syn toxicity (dose-response)", "assay_type": "cell-based", "protocol": "For galactose-induction experiments, overnight cultures were grown in CSM/2% glucose to saturation and diluted 1:20 into CSM/2% raffinose for ˜2 generations. Cultures were then diluted into CSM/2% galactose at an optimum OD600 for the experiment (see ‘Growth assays’).\nSource plates were assembled in 96 well plates using multichannel pipettes to dilute rows in 1.6-fold serial dilutions of CSMGal. […] For α-syn, the final starting OD600 was 0.02. Drug concentration ranges varied depending on efficacy, growth inhibition, and solubility in media. A Tecan EvoFreedom liquid handling robot was then used to transfer culture from 96 to 384 well format with each well being represented four times. Final well volume was 35 μL. Plates were then incubated in humidified containers at 30° C. for either 24 or 40 hours. Plates were then read with a Tecan Saphire plate reader at OD600.\nRaw OD600 values were transformed to “Relative Growth” in WT cells or “% Maximum Rescue” in α-syn experiments. In WT cells, the well background was subtracted and all values were then normalized to 100% for the untreated condition. In α-syn rescue experiments, the well background was subtracted and the maximum rescue in the particular experiment was normalized to 100%."}, "Cpy": {"system": "Cpy", "experiment": "CPY western blot, ER-to-Golgi trafficking in α-syn yeast", "assay_type": "cell-based", "conditions": "α-syn-expressing yeast", "protocol": "CPY western blots were performed using culture conditions as described above. An anti-Cpy antibody (Invitrogen, A6428) was used at 1:5,000. Post-ER:ER ratios were quantitated using an IRDye800 secondary antibody (Li-Cor Odyssey, Rockland Immunochemicals) and scanned with the Li-Cor Odyssey imaging system. Significance was determined using a one-way ANOVA and Tukey's test of significance."}, "aSyn^A53T iPS neurons [3]": {"system": "aSyn^A53T iPS neurons", "experiment": "ER protein trafficking (nicastrin, GCase, Endo H) in patient iPS neurons", "conditions": "human cortical neurons from iPSCs of a patient carrying α-syn mutations", "experimental": "Trafficking from ER was assessed by probing for nicastrin and GCase with or without Endo H treatment. Data are normalized using corrected/A53T ratios established in FIG. 6 to more faithfully depict the biological significance of the small molecule effects (n=3). […] All data represented as mean±SEM (*: p<0.05; **: p<0.01, two tail t-test compared to control condition).\nTrafficking from ER was assessed by probing for nicastrin and GCase with or without Endo H treatment."}, "Aβ peptide": {"system": "Aβ peptide", "experiment": "Yeast growth rescue, Aβ peptide proteinopathy model", "assay_type": "cell-based", "protocol": "(§1) (A) Structure of lead compound ABI. (B) Dose-response curves showing the relative rescue of ABI (log2, μM) in five yeast proteinopathy models. Rescue is relative to a positive control compound as determined by growth (OD600). (C) Localization of α-syn-GFP in strains with increasing toxicity: NoTox, InTox, HiTox and HiTox treated with 10 μM ABI. […] (E) (Left panel) Western blot of α-syn-GFP in NoTox, InTox, and HiTox strains with anti-α-syn antibody. (Right panel) Quantitation of western blot (α-syn relative to total protein quantitated from a Coomassie gel and normalized to 100% for HiTo). **: P<0.01; and ***: P<0.001, according to one-way ANOVA and a Tukey's test.\n(§2) Yeast strains expressing toxic proteins have been described previously (6, 9, 33, 34) (Table 1). All strains have either single or multiple inserts for galactose-inducible expression. In addition, all stains have either deletions of the Δpdr1::KanMX and Δpdr3::KanMX or Δpdr5::KanMX to reduce efflux of compounds and required compound dosing. Yeast were cultured in complete synthetic media (CSM) and an appropriate dropout (minus HIS or URA) to maintain plasmids if required. […]\n(§3) Starting cultures for all dose-response assays were established as described above. […] Plates were then read with a Tecan Saphire plate reader at OD600."}, "Bap2": {"system": "Bap2", "experiment": "Western blot of proteinA-tagged Bap2", "assay_type": "cell-based, yeast", "conditions": "Rsp5-dependent"}, "nitrosative stress": {"system": "nitrosative stress", "experiment": "Nitrosative stress (protein nitration, 3-NT antibody) in yeast synucleinopathy model", "assay_type": "cell-based"}, "α-syn [4]": {"system": "α-syn", "experiment": "Western blot of α-syn levels in yeast", "assay_type": "cell-based", "conditions": "α-syn-expressing yeast", "protocol": "Protein analysis of α-syn-GFP was performed in NoTox, InTox, and HiTox strains with ABI1 treatment at indicated concentrations. Log phase CSM/2% raffinose cultures were induced with 2% galactose for 5 hours with DMSO or ABI1. Cultures were normalized to cell density and cell pellets prepared for SDS-PAGE. Cell pellets were boiled in SDS-loading dye for 15′, centrifuged, and resolved by 4-12% SDS-PAGE. […] From the same gel, total protein was detected by coomassie staining. Both blots and coomassie-stained gels were scanned using the Li-Cor Odyssey imaging system and quantitated. Values were expressed as α-syn normalized to total protein (FIG. 1E). Significance was determined using a one-way ANOVA with Tukey's test of significance."}, "FUS/TLS": {"system": "FUS/TLS", "experiment": "Yeast growth rescue, FUS/TLS proteinopathy model", "assay_type": "cell-based", "protocol": "as §1, §2, §3"}, "htt72Q": {"system": "htt72Q", "experiment": "Yeast growth rescue, htt72Q proteinopathy model", "assay_type": "cell-based", "protocol": "as §1, §2, §3"}}, "note": "“Also recorded” adds a separate entry of the source.", "data": [{"compound": "Cc1cccc(-n2cnc3cc(C(=O)NCc4ccccc4Cl)ccc32)c1", "note": "[ABI, N-(2-chlorobenzyl)-1-(m-tolyl)-1H-benzo[d]imidazole-5-carboxamide]", "values": [{"measurement": "ubiquitination of recombinant Rsp5p in vitro", "setting": "Rsp5p", "value": "did not enhance ubiquitination"}, {"measurement": "nitrosative stress", "setting": "aSyn^A53T iPS neurons [1]", "value": "reduced nitrosative stress"}, {"measurement": "growth-inhibitory concentration relative to EC50 in rescuing α-syn toxicity", "setting": "α-syn [2]", "value": "about four-fold"}, {"measurement": "potency and efficacy against α-syn (rescue of growth)", "setting": "α-syn [2]; compared with TDP-43 model", "value": "much greater potency and efficacy"}, {"measurement": "ER-to-Golgi trafficking (Cpy) / forward protein trafficking through the ER", "setting": "Cpy", "value": "directly ameliorated an ER-Golgi trafficking block"}, {"measurement": "ER-to-Golgi protein trafficking defect", "setting": "aSyn^A53T iPS neurons [3]", "value": "ameliorated an ER-to-Golgi protein trafficking defect"}, {"measurement": "efficacy against Aβ peptide", "setting": "Aβ peptide", "value": "not, however, effective"}, {"measurement": "Bap2 levels / degradation", "setting": "Bap2", "value": "promotes Bap2 degradation"}, {"measurement": "nitrosative stress", "setting": "nitrosative stress", "value": "prevented the generation of highly localized nitrosative stress"}, {"measurement": "α-syn levels", "setting": "α-syn [4]", "value": "did not reverse α-syn phenotypes by reducing α-syn levels; also recorded: did not detect changes"}, {"measurement": "efficacy against FUS/TLS", "setting": "FUS/TLS", "value": "not, however, effective"}, {"measurement": "efficacy against htt72Q", "setting": "htt72Q", "value": "not, however, effective"}, {"measurement": "melting point", "value": "129 to 131", "unit": "°C"}]}]}
